Assay results as given in PMC9090415, “Discovery of small molecule inhibitors of Plasmodium falciparum apicoplast DNA polymerase” (Journal of Enzyme Inhibition and Medicinal Chemistry, 2022).

Target: P. falciparum apicoplast DNA polymerase (Pf-apPOL) (Plasmodium falciparum, UniProt Q8ILY1)
Test: Fluorescence-based high-throughput DNA polymerase assay (molecular beacon), primary screen and dose-response
Assay type: biochemical
Conditions: for DNA Pol: 90 min, 10 µM
Method: The HT assay employs a molecular beacon, a stem-loop DNA template with a Cy3 dye and the Black Hole Quencher on the 3′ and 5′ ends of the DNA, respectively. Pf-apPOL concentration is based on a calculated absorptivity of ε280 = 56750 M^−1 cm^−1. Reactions were carried out at 25 °C, using Corning 3575 […] (well-volume, 20 µL). Assays testing for compound inhibition composed of reaction buffer (pH 7.9 in 50 mM potassium acetate, 20 mM Tris-acetate and 10 mM magnesium acetate), Pf-apPOL (20 nM), DNA substrate (20 nM), dNTPs (6 µM), and compound (10 µM in DMSO). The DNA and nucleotide substrates (dNTPs) were at concentrations of 20 nM and 6 µM, respectively, in the assay. Pf-apPOL was incubated in the reaction buffer with dNTPs and the compound of interest (10 µM, in the assay) at 25 °C for 10 min. The DNA substrate was then added and the reaction was allowed to proceed for 90 min at 25 °C.
Each assay plate contained 16 negative controls (no Pf-apPOL, DMSO present) and 16 positive controls (Pf-apPOL present, no DMSO). The fluorescence of each well was determined using a BioTek Synergy Neo fluorescence plate reader using excitation and emission wavelengths of 555 and 570 nm, respectively.
In the above, Min is the average of fluorescence emission of the negative controls (substrate only), Max the average fluorescence emission from the positive controls (enzyme + substrate), and Test the emission from the assays in the presence of compounds (enzyme + compound + substrates). […] […] The IC50 of each compound was determined using Equation (2): (2) IC50= Vmax/(1+ (I/IC50)^n)
In the above, n measures cooperativity, with n > 1 indicating synergistic binding of more than a single molecule of the compound.
To identify apPOL inhibitors we utilised our previously developed high-throughput DNA polymerase assay. The HT assay is based on a molecular beacon DNA template that forms a stem-loop with a Cy3 dye and the Black Hole Quencher on the 3′ and 5′ ends of the DNA, respectively. DNA polymerase activity extends an annealed primer through the stem region, displacing the fluorophore from the quencher, thereby increasing its fluorescence (Figure 1(A)). The assay accurately recapitulates the kinetic behaviour of apPOL, as measured through more conventional low-throughput gel-based assays. The Z′ factor for the assay described here was 0.9 across all plates (data not shown).
Figure 1. High-throughput screening. (A) The fluorescent-based DNA polymerase assay used to screen the compound libraries. The DNA template strand is a hairpin loop with a primer annealed to the loop. The 3’ end of the primer is 11 bases away from the 6 bp duplex. Strand displacement activity of the DNA polymerase separates the Cy3 dye from the Black hole quencher leading to an increase in fluorescent signal. (B) The high-throughput assay workflow. The DNA polymerase is incubated with […] compound for 10 min prior to addition of the hairpin substrate. The reaction is quenched at 3 different time points and the fluorescent signal is measured and % inhibition is determined using the provided equation.

Chain of P. falciparum apicoplast DNA polymerase (Pf-apPOL) (Q8ILY1 entry or part of it): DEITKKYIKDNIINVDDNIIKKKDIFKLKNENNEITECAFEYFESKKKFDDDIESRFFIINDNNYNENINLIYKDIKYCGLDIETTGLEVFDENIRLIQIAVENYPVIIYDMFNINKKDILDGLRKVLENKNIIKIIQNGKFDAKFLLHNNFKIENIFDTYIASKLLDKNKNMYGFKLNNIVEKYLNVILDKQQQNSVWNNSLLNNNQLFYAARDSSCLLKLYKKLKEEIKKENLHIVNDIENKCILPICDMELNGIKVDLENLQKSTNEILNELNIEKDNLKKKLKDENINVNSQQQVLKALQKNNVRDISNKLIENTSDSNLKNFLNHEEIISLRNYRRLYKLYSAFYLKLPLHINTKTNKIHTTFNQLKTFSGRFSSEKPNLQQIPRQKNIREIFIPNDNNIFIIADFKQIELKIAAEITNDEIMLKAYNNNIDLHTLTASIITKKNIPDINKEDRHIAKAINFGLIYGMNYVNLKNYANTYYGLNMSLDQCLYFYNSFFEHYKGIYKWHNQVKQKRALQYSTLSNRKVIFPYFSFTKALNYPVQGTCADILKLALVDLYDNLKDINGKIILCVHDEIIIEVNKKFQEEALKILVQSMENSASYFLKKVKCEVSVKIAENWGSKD

SMILES: COc1cccc(C(=O)N2CCc3c(nc4cc(-c5ccccc5)[nH]n4c3=O)C2)c1OC [Molecule 22]
- IC50 (supplemental file 2, sheet IC50 nontoxic compounds, Pf-apPOL): 7.31 µM

SMILES: Cc1cccc(-c2nnc3ccc(NS(=O)(=O)c4ccc(C)c(C)c4)nn23)c1 [Molecule 40, Cc1cccc(c1)c1nnc2n1nc(cc2)NS(=O)(=O)c1ccc(c(c1)C)C]
- % inhibition Apo pol 10' (DRC-1, concentration 2.5): 17.5333%
- % inhibition Apo pol 10' (DRC-1, concentration 5): 15.8571%
- % inhibition Apo pol 10' (DRC-1, concentration 10): 58.8718%
- % inhibition Apo pol 10' (DRC-1, concentration 20): 64.4117%
- % inhibition Apo pol 10' (DRC-1, concentration 40): 83.8171%
- % inhibition Apo pol 10' (DRC-1, concentration 80): 87.6455%
- % inhibition Apol 90' (DRC-1, concentration 2.5): 8.645%
- % inhibition Apol 90' (DRC-1, concentration 5): 6.674%
- % inhibition Apol 90' (DRC-1, concentration 10): 42.202%
- % inhibition Apol 90' (DRC-1, concentration 20): 48.6788%
- % inhibition Apol 90' (DRC-1, concentration 40): 74.666%
- % inhibition Apol 90' (DRC-1, concentration 80): 86.8335%
- % inhibition apPOL 180' (DRC-1, concentration 2.5): 2.98%
- % inhibition apPOL 180' (DRC-1, concentration 5): 3.293%
- % inhibition apPOL 180' (DRC-1, concentration 10): 32.359%
- % inhibition apPOL 180' (DRC-1, concentration 20): 37.8584%
- % inhibition apPOL 180' (DRC-1, concentration 40): 67.3017%
- % inhibition apPOL 180' (DRC-1, concentration 80): 87.5255%
- % inhibition Apo pol 5' (DRC-2, concentration 2.5): 5%
- % inhibition Apo pol 5' (DRC-2, concentration 5): 15%
- % inhibition Apo pol 5' (DRC-2, concentration 10): 22%
- % inhibition Apo pol 5' (DRC-2, concentration 20): 26%
- % inhibition Apo pol 5' (DRC-2, concentration 40): 22%
- % inhibition Apo pol 5' (DRC-2, concentration 80): 17%
- % inhibition Apol 40' (DRC-2, concentration 2.5): 4.3%
- % inhibition Apol 40' (DRC-2, concentration 5): 18%
- % inhibition Apol 40' (DRC-2, concentration 10): 30%
- % inhibition Apol 40' (DRC-2, concentration 20): 44%
- % inhibition Apol 40' (DRC-2, concentration 40): 51%
- % inhibition Apol 40' (DRC-2, concentration 80): 53%
- % inhibition ApPOL 90' (DRC-2, concentration 2.5): 3.29%
- % inhibition ApPOL 90' (DRC-2, concentration 5): 17%
- % inhibition ApPOL 90' (DRC-2, concentration 10): 29%
- % inhibition ApPOL 90' (DRC-2, concentration 20): 46%
- % inhibition ApPOL 90' (DRC-2, concentration 40): 57%
- % inhibition ApPOL 90' (DRC-2, concentration 80): 62%
- % inhibition apPOL 180' (DRC-2, concentration 2.5): -0.478%
- % inhibition apPOL 180' (DRC-2, concentration 5): 11%
- % inhibition apPOL 180' (DRC-2, concentration 10): 23%
- % inhibition apPOL 180' (DRC-2, concentration 20): 40%
- % inhibition apPOL 180' (DRC-2, concentration 40): 60%
- % inhibition apPOL 180' (DRC-2, concentration 80): 68%
- % inhibition ApPOL 90' (conc. 5, DRC-2): 17%
- % inhibition Apo pol 5' (conc. 10, DRC-2): 22%
- % inhibition Apo pol 5' (conc. 40, DRC-2): 22%
- % inhibition Apo pol 5' (conc. 80, DRC-2): 17%
- DNA Pol (primary screen value by plate and well): 50
- DNA Pol (primary screen value of the 186 hits, unit not given): 50
